Data taken from patent US10670605B2, “Cysteine reactive probes and uses thereof” (The Scripps Research Institute, priority 2015, dated 2020).

Experiments:
Test in all cases: Competitive isoTOP-ABPP, cell lysates
Assay type in all cases: binding
DDX59 C453 (Q5T1V6) = biological target: T1, DDX59 C453 (Q5T1V6) (Homo sapiens, UniProt Q5T1V6); settings: for isoTOP-ABPP reactivity profile ratio, Q5T1V6_C453: 500 μm; for R value (DMSO/fragment) / isoTOP-ABPP ratio, Q5T1V6_C453: 500 μM
T1 sequence (Q5T1V6 1-619): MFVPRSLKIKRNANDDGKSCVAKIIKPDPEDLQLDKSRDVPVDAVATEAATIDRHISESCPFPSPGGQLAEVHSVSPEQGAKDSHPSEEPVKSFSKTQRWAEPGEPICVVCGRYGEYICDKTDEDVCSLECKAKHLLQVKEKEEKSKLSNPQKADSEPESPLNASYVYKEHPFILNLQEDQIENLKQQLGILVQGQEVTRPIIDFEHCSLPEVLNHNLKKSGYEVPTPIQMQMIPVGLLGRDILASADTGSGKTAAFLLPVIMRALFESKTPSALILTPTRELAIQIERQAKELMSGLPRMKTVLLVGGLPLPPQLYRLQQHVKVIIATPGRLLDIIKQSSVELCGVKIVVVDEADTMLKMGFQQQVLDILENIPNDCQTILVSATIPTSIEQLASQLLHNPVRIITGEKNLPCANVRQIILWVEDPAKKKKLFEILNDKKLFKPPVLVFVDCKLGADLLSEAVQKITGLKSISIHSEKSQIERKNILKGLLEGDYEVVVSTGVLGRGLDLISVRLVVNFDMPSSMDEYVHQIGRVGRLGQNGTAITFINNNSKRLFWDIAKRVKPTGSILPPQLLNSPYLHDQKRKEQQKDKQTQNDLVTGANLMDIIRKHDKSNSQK

EP300 C1738 (Q09472) = EP300 C1738 (Q09472) (Homo sapiens, UniProt Q09472); settings: for isoTOP-ABPP reactivity profile ratio, Q09472_C1738: 500 μm, in-vitro_ramos_231
RELB C109 (Q01201) = biological target: T2, RELB C109 (Q01201) (Homo sapiens, UniProt Q01201); settings: for R value (DMSO/fragment): 500 μM
T2 sequence (Q01201 1-579): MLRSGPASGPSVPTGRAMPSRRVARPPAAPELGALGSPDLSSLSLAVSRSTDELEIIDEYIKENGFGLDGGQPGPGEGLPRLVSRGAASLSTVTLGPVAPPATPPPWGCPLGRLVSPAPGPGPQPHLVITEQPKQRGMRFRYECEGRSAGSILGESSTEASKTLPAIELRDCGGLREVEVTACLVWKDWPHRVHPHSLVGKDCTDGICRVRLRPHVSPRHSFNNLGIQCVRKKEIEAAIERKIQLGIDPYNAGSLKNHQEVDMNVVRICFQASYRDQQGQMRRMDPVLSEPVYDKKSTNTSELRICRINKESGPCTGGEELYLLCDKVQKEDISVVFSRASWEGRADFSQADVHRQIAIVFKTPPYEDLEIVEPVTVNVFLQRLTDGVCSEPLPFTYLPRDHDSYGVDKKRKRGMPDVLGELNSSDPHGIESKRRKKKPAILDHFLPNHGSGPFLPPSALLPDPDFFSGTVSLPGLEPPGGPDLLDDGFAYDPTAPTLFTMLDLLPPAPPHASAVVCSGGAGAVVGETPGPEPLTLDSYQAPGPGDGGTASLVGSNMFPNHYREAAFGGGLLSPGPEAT

USP34 C741 (Q70CQ2) = USP34 C741 (Q70CQ2) (Homo sapiens, UniProt Q70CQ2)
USP34 C741 (Q70CQ2), sequence (Q70CQ2 whole entry, the tested form may be a part): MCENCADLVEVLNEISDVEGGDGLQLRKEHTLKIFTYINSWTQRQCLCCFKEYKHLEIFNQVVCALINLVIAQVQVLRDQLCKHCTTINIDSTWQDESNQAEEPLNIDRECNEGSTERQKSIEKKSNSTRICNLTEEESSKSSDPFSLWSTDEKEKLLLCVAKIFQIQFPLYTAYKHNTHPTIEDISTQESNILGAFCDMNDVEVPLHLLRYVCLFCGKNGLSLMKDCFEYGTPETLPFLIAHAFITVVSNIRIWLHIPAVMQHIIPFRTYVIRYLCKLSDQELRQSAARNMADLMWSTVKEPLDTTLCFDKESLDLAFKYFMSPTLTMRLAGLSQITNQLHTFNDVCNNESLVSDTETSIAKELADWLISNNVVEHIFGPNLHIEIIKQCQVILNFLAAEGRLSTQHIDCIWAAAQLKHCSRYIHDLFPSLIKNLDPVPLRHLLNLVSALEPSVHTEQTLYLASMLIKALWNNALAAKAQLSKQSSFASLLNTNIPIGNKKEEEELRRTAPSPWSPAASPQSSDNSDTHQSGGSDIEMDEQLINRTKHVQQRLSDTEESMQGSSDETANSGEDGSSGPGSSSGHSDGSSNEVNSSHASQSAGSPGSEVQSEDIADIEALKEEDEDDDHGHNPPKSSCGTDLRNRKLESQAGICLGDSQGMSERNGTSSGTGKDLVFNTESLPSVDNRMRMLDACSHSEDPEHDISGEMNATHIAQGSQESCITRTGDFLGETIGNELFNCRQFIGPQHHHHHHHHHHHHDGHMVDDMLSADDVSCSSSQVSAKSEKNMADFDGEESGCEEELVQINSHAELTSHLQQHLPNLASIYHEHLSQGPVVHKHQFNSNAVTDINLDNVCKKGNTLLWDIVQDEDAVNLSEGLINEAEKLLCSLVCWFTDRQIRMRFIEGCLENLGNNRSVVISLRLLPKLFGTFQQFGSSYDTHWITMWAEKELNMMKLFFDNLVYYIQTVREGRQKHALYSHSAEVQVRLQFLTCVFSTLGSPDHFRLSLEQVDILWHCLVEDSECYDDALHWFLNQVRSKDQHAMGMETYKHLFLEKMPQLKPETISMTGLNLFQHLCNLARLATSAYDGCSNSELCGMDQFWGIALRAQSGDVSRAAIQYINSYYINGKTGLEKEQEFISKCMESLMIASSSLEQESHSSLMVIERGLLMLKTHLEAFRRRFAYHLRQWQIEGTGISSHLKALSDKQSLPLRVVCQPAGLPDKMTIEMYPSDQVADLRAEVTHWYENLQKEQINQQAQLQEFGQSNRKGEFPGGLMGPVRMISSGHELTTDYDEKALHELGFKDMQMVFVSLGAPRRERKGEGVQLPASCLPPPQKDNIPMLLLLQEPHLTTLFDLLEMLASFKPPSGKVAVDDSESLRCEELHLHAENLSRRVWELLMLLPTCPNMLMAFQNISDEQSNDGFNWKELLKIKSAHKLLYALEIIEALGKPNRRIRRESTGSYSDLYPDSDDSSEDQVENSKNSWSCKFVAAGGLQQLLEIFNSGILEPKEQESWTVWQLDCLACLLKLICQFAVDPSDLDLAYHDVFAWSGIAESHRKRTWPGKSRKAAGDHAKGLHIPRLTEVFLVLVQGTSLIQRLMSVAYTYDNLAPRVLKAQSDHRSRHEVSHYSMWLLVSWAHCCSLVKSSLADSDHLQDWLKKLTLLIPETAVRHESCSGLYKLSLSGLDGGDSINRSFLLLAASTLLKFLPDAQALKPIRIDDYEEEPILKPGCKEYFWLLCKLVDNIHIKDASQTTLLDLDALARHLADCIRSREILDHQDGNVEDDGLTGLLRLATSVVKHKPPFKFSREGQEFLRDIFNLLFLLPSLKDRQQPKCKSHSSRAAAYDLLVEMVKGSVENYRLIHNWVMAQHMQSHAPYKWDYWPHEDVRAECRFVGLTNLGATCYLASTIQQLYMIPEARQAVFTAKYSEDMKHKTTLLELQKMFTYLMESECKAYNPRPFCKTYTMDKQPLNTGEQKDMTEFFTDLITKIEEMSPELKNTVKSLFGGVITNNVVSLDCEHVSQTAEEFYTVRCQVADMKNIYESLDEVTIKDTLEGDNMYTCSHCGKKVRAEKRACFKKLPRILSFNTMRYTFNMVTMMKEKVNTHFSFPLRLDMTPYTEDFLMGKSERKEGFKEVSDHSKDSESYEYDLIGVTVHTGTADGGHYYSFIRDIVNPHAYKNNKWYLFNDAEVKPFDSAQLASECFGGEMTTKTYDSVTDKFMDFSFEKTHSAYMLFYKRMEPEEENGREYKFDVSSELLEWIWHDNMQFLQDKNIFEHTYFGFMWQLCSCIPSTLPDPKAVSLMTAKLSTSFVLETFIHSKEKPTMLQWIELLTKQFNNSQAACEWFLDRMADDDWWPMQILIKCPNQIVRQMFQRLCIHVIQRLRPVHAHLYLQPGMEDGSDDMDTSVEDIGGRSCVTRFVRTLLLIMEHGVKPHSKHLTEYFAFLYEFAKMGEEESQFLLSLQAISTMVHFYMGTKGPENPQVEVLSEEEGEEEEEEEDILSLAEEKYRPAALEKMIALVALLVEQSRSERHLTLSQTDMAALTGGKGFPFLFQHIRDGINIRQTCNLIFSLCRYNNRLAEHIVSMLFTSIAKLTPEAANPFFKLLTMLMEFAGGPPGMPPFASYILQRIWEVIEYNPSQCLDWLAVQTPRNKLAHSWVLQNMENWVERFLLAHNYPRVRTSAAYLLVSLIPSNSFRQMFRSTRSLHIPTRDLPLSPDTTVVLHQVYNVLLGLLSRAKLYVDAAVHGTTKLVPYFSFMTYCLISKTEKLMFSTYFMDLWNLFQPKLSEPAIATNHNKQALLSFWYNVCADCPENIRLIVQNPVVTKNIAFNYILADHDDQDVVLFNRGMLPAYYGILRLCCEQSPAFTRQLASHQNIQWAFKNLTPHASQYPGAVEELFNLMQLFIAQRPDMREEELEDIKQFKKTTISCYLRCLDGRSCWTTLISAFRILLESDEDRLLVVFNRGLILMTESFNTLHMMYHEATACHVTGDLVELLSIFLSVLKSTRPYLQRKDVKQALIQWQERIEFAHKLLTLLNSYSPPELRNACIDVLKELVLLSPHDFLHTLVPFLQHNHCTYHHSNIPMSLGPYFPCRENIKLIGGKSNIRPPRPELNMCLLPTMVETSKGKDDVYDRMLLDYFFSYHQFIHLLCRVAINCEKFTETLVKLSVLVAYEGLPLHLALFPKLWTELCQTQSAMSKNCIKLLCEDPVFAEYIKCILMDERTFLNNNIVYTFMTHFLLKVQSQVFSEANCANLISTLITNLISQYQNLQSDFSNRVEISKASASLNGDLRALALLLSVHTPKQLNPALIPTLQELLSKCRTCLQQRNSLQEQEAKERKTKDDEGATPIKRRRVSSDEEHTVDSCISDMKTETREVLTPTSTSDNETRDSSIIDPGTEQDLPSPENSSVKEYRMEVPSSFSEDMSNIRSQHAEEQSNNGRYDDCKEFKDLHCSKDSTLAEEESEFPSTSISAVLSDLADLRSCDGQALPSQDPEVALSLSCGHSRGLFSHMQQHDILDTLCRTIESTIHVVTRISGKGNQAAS

IRAK1 C608 (P51617) = IRAK1 C608 (P51617) (Homo sapiens, UniProt P51617); settings: for isoTOP-ABPP reactivity profile ratio, P51617_C608 / isoTOP-ABPP reactivity ratio, P51617_C608: 500 μm; for isoTOP-ABPP ratio, P51617_C608 / R value (DMSO/fragment): 500 μM, invitro, ramos; for isoTOP-ABPP ratio (reactivity profile), P51617_C608: 500 μm in-vitro ramos
IRAK1 C608 (P51617), sequence (P51617 whole entry, the tested form may be a part): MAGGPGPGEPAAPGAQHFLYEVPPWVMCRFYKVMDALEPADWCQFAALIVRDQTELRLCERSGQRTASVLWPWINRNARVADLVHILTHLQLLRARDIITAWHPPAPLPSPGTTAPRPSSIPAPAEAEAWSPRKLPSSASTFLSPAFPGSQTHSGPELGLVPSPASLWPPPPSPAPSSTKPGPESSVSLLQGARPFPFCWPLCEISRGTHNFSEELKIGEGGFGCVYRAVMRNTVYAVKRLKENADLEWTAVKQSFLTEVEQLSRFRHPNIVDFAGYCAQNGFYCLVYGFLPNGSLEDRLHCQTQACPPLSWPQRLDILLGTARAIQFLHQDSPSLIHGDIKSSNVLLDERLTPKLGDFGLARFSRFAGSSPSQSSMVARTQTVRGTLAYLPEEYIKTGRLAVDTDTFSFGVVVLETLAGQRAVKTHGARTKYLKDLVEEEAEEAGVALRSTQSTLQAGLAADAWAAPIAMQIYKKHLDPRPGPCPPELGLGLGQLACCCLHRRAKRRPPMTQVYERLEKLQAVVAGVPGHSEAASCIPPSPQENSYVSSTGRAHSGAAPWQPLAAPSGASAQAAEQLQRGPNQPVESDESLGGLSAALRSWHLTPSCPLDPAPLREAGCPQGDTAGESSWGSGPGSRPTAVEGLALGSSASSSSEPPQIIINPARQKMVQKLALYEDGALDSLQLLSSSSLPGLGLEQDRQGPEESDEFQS

Compound: COc1cc(NC(=O)CCl)cc(OC)c1 [compound 43]
- isoTOP-ABPP reactivity profile ratio, Q5T1V6_C453 (DDX59 C453 (Q5T1V6); in-vitro_ramos_231): 20.0
- isoTOP-ABPP reactivity profile ratio, Q09472_C1738 (EP300 C1738 (Q09472)): 2.2

Compound: CC(C)CCOCCNC(=O)CCl [compound 27]
- isoTOP-ABPP ratio (reactivity profile), Q5T1V6_C453 (DDX59 C453 (Q5T1V6); 500 μm in-vitro ramos_231): 1.0
- isoTOP-ABPP ratio (reactivity profile), Q09472_C1738 (EP300 C1738 (Q09472); 500 μm in-vitro ramos_231): 1.0
- isoTOP-ABPP ratio (reactivity profile), Q01201_C109 (RELB C109 (Q01201); 500 μm in-vitro ramos_231): 0.8

Compound: C=CC(=O)N1CCC(c2noc3ccc(F)cc23)CC1 [compound 37]
- isoTOP-ABPP reactivity ratio, Q70CQ2_C741 (USP34 C741 (Q70CQ2); 500 μm, in-vitro_ramos): 1.1

Compound: O=C(CCl)Nc1cccc2ncccc12 [compound 51]
- isoTOP-ABPP reactivity profile ratio, Q5T1V6_C453 (DDX59 C453 (Q5T1V6); in-vitro_ramos): 1.8
- isoTOP-ABPP reactivity profile ratio, P51617_C608 (IRAK1 C608 (P51617); in-vitro_ramos): 1.1
- isoTOP-ABPP reactivity profile ratio, Q01201_C109 (RELB C109 (Q01201); 500 μm, in-vitro_ramos): 1.6
- isoTOP-ABPP reactivity profile ratio, Q70CQ2_C741 (USP34 C741 (Q70CQ2); 500 μm, in-vitro_ramos): 0.9

Compound: COc1ccccc1OCCNC(=O)CCl [compound 28]
- isoTOP-ABPP ratio (reactivity profile), Q01201_C109 (RELB C109 (Q01201); 500 μm in-vitro ramos): 1.1

Compound: O=C(CCl)N1CCN(S(=O)(=O)c2ccccc2F)CC1 [compound 10]
- isoTOP-ABPP ratio, Q70CQ2_C741 (USP34 C741 (Q70CQ2); 500 μM, invitro, ramos): 0.9

Compound: Cc1ccc(C=C(C#N)C(=O)NCCN2CCOCC2)cc1 [compound 41]
- isoTOP-ABPP reactivity ratio, P51617_C608 (IRAK1 C608 (P51617); in-vitro_ramos_231): 1.1

Compound: CC(C)(C)c1cc(NC(=O)CCl)on1 [compound 32]
- isoTOP-ABPP reactivity ratio, P51617_C608 (IRAK1 C608 (P51617); in-vitro_ramos): 2.9
- isoTOP-ABPP reactivity ratio, P51617_C608 (IRAK1 C608 (P51617); in-vitro_ramos_231): 5.8
- isoTOP-ABPP reactivity ratio, Q01201_C109 (RELB C109 (Q01201); 500 μm, in-vitro_ramos): 20.0

Compound: C=CC(=O)N(c1ccccc1)c1ccc(Br)cc1 [compound 5]
- isoTOP-ABPP ratio, Q09472_C1738 (EP300 C1738 (Q09472); 500 μM, invitro, ramos): 20.0
- isoTOP-ABPP ratio, P51617_C608 (IRAK1 C608 (P51617)): 10.1

Compound: O=C(CCl)Nc1cc(C(F)(F)F)cc(C(F)(F)F)c1 [compound 3]
- R value (DMSO/fragment) (DDX59 C453 (Q5T1V6); in vitro, MDA-MB-231): 20.0
- R value (DMSO/fragment) (IRAK1 C608 (P51617)): 20.0
- R value (DMSO/fragment) (USP34 C741 (Q70CQ2); 500 μM, invitro, ramos): 3.2

Compound: COc1ccc2c(c1)CCCN2C(=O)CCl [compound 2]
- R value (DMSO/fragment) (DDX59 C453 (Q5T1V6); in vitro, MDA-MB-231): 20.0
- R value (DMSO/fragment) (DDX59 C453 (Q5T1V6); invitro, ramos): 20.0
- R value (DMSO/fragment) (EP300 C1738 (Q09472); 500 μM, invitro, ramos): 12.7
- R value (DMSO/fragment) (IRAK1 C608 (P51617)): 2.5
- R value (DMSO/fragment) (RELB C109 (Q01201); in vitro, MDA-MB-231): 20.0
- R value (DMSO/fragment) (RELB C109 (Q01201); invitro, ramos): 20.0

Compound: N#C/C(=C\c1cc(C(F)(F)F)cc(C(F)(F)F)c1)C(N)=O [compound 23]
- isoTOP-ABPP ratio (reactivity profile), P51617_C608 (IRAK1 C608 (P51617)): 1.5
- isoTOP-ABPP ratio (reactivity profile), Q01201_C109 (RELB C109 (Q01201); 500 μm in-vitro ramos): 1.3

Compound: C=CC(=O)Nc1cc(F)c(N2CCN(C(=O)OC(C)(C)C)CC2)c(F)c1 [compound 38]
- isoTOP-ABPP reactivity ratio, P51617_C608 (IRAK1 C608 (P51617); in-vitro_ramos): 2.4
- isoTOP-ABPP reactivity ratio, Q70CQ2_C741 (USP34 C741 (Q70CQ2); 500 μm, in-vitro_ramos): 4.1

Compound: C=CC(=O)N(Cc1cccnc1)c1cc(C(F)(F)F)cc(C(F)(F)F)c1 [compound 31]
- isoTOP-ABPP reactivity ratio, Q70CQ2_C741 (USP34 C741 (Q70CQ2); 500 μm, in-vitro_ramos_231): 4.2

Compound: Cn1cc(S(=O)(=O)N2CCOCC2)cc1C(=O)NC(=O)CCl [compound 11]
- isoTOP-ABPP ratio, Q5T1V6_C453 (DDX59 C453 (Q5T1V6); invitro, 231): 20.0
- isoTOP-ABPP ratio, P51617_C608 (IRAK1 C608 (P51617)): 1.3

Compound: O=C(CCl)NCCc1c[nH]c2ccccc12 [compound 13]
- isoTOP-ABPP ratio, Q5T1V6_C453 (DDX59 C453 (Q5T1V6); invitro, ramos): 1.4
- isoTOP-ABPP ratio, Q09472_C1738 (EP300 C1738 (Q09472); 500 μM, invitro, ramos): 0.7
- isoTOP-ABPP ratio, Q70CQ2_C741 (USP34 C741 (Q70CQ2); 500 μM, invitro, 231): 0.8

Compound: O=C(CCl)N1CCN(CC(=O)N2CCOCC2)CC1 [compound 29]
- isoTOP-ABPP ratio (reactivity profile), Q09472_C1738 (EP300 C1738 (Q09472); 500 μm in-vitro ramos_231): 1.3

Compound: CC(Cl)C(=O)Nc1cc(C(F)(F)F)cc(C(F)(F)F)c1 (centres unmarked) [compound 25]
- isoTOP-ABPP ratio (reactivity profile), Q5T1V6_C453 (DDX59 C453 (Q5T1V6); 500 μm in-vitro ramos_231): 0.9
- isoTOP-ABPP ratio (reactivity profile), Q09472_C1738 (EP300 C1738 (Q09472); 500 μm in-vitro ramos_231): 1.6

Compound: CC(Br)C(=O)Nc1cc(C(F)(F)F)cc(C(F)(F)F)c1 (centres unmarked) [compound 24]
- isoTOP-ABPP ratio (reactivity profile), Q5T1V6_C453 (DDX59 C453 (Q5T1V6); 500 μm in-vitro ramos): 1.7
- isoTOP-ABPP ratio (reactivity profile), P51617_C608 (IRAK1 C608 (P51617)): 1.3
- isoTOP-ABPP ratio (reactivity profile), Q01201_C109 (RELB C109 (Q01201); 500 μm in-vitro ramos): 1.5

Compound: O=C(CCl)NC12CC3CC(CC(C3)C1)C2 [compound 21]
- isoTOP-ABPP ratio (reactivity profile), Q70CQ2_C741 (USP34 C741 (Q70CQ2); 500 μm in-vitro ramos): 1.7

Compound: N#CC(=Cc1ccc(-c2ccccc2Cl)o1)C(N)=O [compound 42]
- isoTOP-ABPP reactivity profile ratio, Q5T1V6_C453 (DDX59 C453 (Q5T1V6); in-vitro_ramos): 1.0

Compound: O=C(CCl)Nc1ccc(-c2ccccc2)cc1 [compound 52]
- isoTOP-ABPP reactivity profile ratio, Q09472_C1738 (EP300 C1738 (Q09472)): 1.1
- isoTOP-ABPP reactivity profile ratio, P51617_C608 (IRAK1 C608 (P51617); in-vitro_ramos): 17.6

Compound: O=C(CCl)N1CCC(C(O)(c2ccccc2)c2ccccc2)CC1 [compound 20]
- isoTOP-ABPP ratio (reactivity profile), Q09472_C1738 (EP300 C1738 (Q09472); 500 μm in-vitro ramos): 3.2
- isoTOP-ABPP ratio (reactivity profile), Q70CQ2_C741 (USP34 C741 (Q70CQ2); 500 μm in-vitro ramos): 1.7
- isoTOP-ABPP ratio (reactivity profile), Q70CQ2_C741 (USP34 C741 (Q70CQ2); 500 μm in-vitro ramos_231): 2.8
